Tested on: hedgehog signaling in embryonic mouse lungs
Assay: embryonic mouse lung explants, Q-RT-PCR of gli-1 and Sp-C
Type: cell-based
Settings: E13.5 mouse lung explants, Q-RT-PCR normalized to GAPDH
Protocol: METHODS: E13.5 embryonic mouse lungs were dissected. Explants were grown exposed to the air-liquid interface in lung explant medium (DMEM based, additives optimized for the culture of mouse lungs) for 67 hrs. They were then processed for quantitative real-time PCR (Q-RT-PCR). Briefly, total ribonucleic acid (RNA) is isolated from the tissue and subjected to reverse transcription to generate DNA. This DNA is amplified in a polymerase chain reaction using gene-specific primers as well as primers for the ubiquitously expressed housekeeping gene GAPDH. The two primer sets are labeled with different fluorophores, allowing for quantification of both signals in the same reaction tube in a real-time PCR machine (TaqMan). When calculating the expression level of gli-1, the specific signal is normalized to the GAPDH signal, which serves as a measure of the total DNA used in the reaction.
METHODS: E13.5 old embryonic mouse lungs were dissected. Explants were grown submerged in lung explant medium (DMEM based, additives optimized for the culture of mouse lungs) for 50 hrs. They were then processed for Q-RT-PCR. Briefly, total ribonucleic acid (RNA) is isolated from the tissue and subjected to reverse transcription to generate DNA. […] The two primer sets are labeled with different fluorophores, allowing for quantification of both signals in the same reaction tube in a real-time PCR machine (TaqMan). […]

How did the “surfactant type C (Sp-C) expression” value turn out when `C[C@]12CCC(=O)C=C1CC[C@@H]1[C@@H]2[C@@H](O)C[C@@]2(C)[C@H]1CC[C@]2(O)C(=O)CO` [hydrocortisone] was run?
Its value is “comparable”.

Tested on: Shh signaling pathway in MEFs homozygous for ptc-lacZ
Assay: β-galactosidase activity in ptc-lacZ mouse embryonic fibroblasts
Type: cell-based
Settings: MEFs homozygous for ptc-lacZ (cell line 23-1), normalized to whole protein content
From the text: The Shh signaling pathway can be activated in these fibroblasts in cell culture, and that the level of β-galactosidase activity does reflect the degree of pathway activation.

For `C[C@H]1CC[C@]2(NC1)O[C@H]1C[C@H]3[C@@H]4CC[C@H]5C[C@@H](O)CC[C@]5(C)[C@H]4CC[C@]3(C)[C@H]1[C@@H]2C` [tomatidine], which β-galactosidase activity is on record?
The β-galactosidase activity was “non-inhibitory”.

Tested on: Shh-induced Gli-transcription
Assay: Gli-Luc assay in 10T1/2(s12) cells activated with OCT-SHH
Type: cell-based
Settings: Gli-Luc response, OCT-SHH 0.3 μg/ml
Protocol: Compounds to be tested are dissolved in DMSO to a concentration of 10 mM, and stored at −20° C. To activate the Hedgehog pathway in the assay cells, an octylated (lipid-modified) form of the N-terminal fragment of the Sonic Hedgehog protein (OCT-SHH) is used. This N-terminal SHH fragment is produced bacterially.
Compounds may be tested in the “Gli-Luc” assay below, using the cell line 10T(s12), wherein the cells contain a Hedgehog-responsive reporter construct utilizing Luciferase as the reporter gene. In this way, Hedgehog pathway signaling activity can be measured via the Gli-Luc response.
10t1/2(s12) cells are plated in a 96-well micro-titer plate (MTP) at 20,000 cells/well in full medium [DMEM with 10% FBS]. Then plates are placed in the incubator for incubation overnight (O/N), at 37° C. and 5% CO2. After 24 h, the medium is replaced with Luciferase-assay medium (DMEM with 5% FBS). Compounds are thawed and diluted in assay medium at 3:1000 (about 300-fold) resulting in a starting concentration of about 30 μM.
Subsequently, 150 μl of each 30 μM sample is added to the first wells (in triplicate). The MTP samples are then diluted at 3-fold dilutions to a total of seven wells, ultimately resulting in a regiment of seven dilutions in triplicate, for each compound. Next, the protein ligand OCT-SHH is diluted in Luciferase-assay medium and added to each well at a final concentration of 0.3 μg/ml. Plates are then returned to the incubator for further incubation O/N, at 37° C. and 5% CO2. After about 24 h, plates are removed from the incubator and the medium is aspirated/discarded. Wells are washed once with assay buffer [PBS+1 mM Mg^2+ and 1 mM Ca^2+]. Then 50 μl of assay buffer is added to each well. The Luciferase assay reagent is prepared as described by the vendor (LucLite kit from Packard), and 50 μl is added to each well. Plates are incubated at room temperature (RT) for about 30 minutes after which the signals are read, again at RT, on a Topcount (Packard).

For `O=C(Nc1cccc(C(F)(F)F)c1)NC(c1nc2ccccc2c(=O)n1-c1ccc(F)cc1)C1CC1` (stereo not drawn) [Compound 75], which IC50 is on record?
Its IC50 is < 5 µM.

For `CCC(c1nc2ccccc2c(=O)[nH]1)N1CCN(C(=O)c2ccc(-c3ccccc3)cc2)C(C)C1` (stereo not drawn) [Compound 46], which IC50 is on record?
Its IC50 is < 0.5 µM.

With `CCCN(C(=O)Nc1cccc(Cl)c1)C(C)c1nc2ccccc2c(=O)n1-c1ccc(F)cc1` (stereo not drawn) [Compound 34] as the compound, how does the IC50 read?
The IC50 was < 5 µM.

With `O=C(NCc1nc2ccccc2c(=O)n1-c1ccc(F)cc1)Nc1ccc(Cl)c([N+](=O)[O-])c1` [Compound 69] as the compound, how does the IC50 read?
The IC50 was < 0.5 µM.

With `CC(c1nc2ccccc2c(=O)n1-c1ccc(F)cc1)N(C)C(=O)Nc1ccc([N+](=O)[O-])c(C(F)(F)F)c1` (stereo not drawn) [Compound 32] as the compound, how does the IC50 read?
Its IC50 is < 5 µM.

With `CC(c1nc2ccccc2c(=O)n1-c1ccc(F)cc1)N(Cc1ccco1)C(=O)Nc1cccc(F)c1` (stereo not drawn) [Compound 31] as the compound, how does the IC50 read?
The IC50 was < 10 µM.

With `CC(c1nc2ccccc2c(=O)n1-c1ccc(F)cc1)N1CCN(C(=O)Nc2ccc(Cl)c(Cl)c2)CC1` (stereo not drawn) [Compound 43] as the compound, how does the IC50 read?
Its IC50 is < 10 µM.

How did the IC50 turn out when `CCOC(=O)c1ccccc1NC(=O)N(C)C(C)c1nc2ccccc2c(=O)n1-c1ccc(F)cc1` (stereo not drawn) [Compound 63] was run?
Its IC50 is < 10 µM.

Which IC50 does the source give for `O=C(NCc1nc2ccccc2c(=O)n1-c1ccc(F)cc1)Nc1cccc(C(F)(F)F)c1` [Compound 44] here?
The IC50 was < 1 µM.

With `CC(c1nc2ccccc2c(=O)n1-c1ccc(F)cc1)N(C)C(=O)Nc1ccc(Cl)cc1[N+](=O)[O-]` (stereo not drawn) [Compound 66] as the compound, how does the IC50 read?
Its IC50 is < 10 µM.

For `O=C(NCc1nc2ccccc2c(=O)n1-c1ccc(F)cc1)Nc1ccc(Cl)c(Cl)c1` [Compound 68], which IC50 is on record?
The IC50 was < 1 µM.

With `O=C(NCc1nc2ccccc2c(=O)n1-c1ccc(F)cc1)Nc1ccc(Cl)c(C(F)(F)F)c1` [Compound 5] as the compound, how does the IC50 read?
The IC50 was < 0.1 µM.

With `Cc1c(NC(=O)N(C)C(C)c2nc3ccccc3c(=O)n2-c2ccc(F)cc2)cccc1[N+](=O)[O-]` (stereo not drawn) [Compound 59] as the compound, how does the IC50 read?
Its IC50 is < 5 µM.

How did the IC50 turn out when `COc1cccc(NC(=O)NCc2nc3ccccc3c(=O)n2-c2ccc(F)cc2)c1C` [Compound 71] was run?
The IC50 was < 10 µM.

How did the IC50 turn out when `Cc1c(NC(=O)NCc2nc3ccccc3c(=O)n2-c2ccc(F)cc2)cccc1SC(F)(F)F` [Compound 67] was run?
Its IC50 is < 5 µM.

Which IC50 does the source give for `CCCCc1ccc(C(=O)N(Cc2ccccc2)C(CC)c2nc3ccccc3c(=O)n2-c2ccc(C)cc2)cc1` (stereo not drawn) [Compound 40] here?
Its IC50 is < 10 µM.

For `CC(c1nc2ccccc2c(=O)n1-c1ccc(F)cc1)N(C)C(=O)Nc1ccc(-c2ccccc2)cc1` (stereo not drawn) [Compound 56], which IC50 is on record?
The IC50 was < 10 µM.

How did the IC50 turn out when `CC(c1nc2ccccc2c(=O)n1-c1ccc(F)cc1)N(C)C(=O)Nc1cccc(C#N)c1` (stereo not drawn) [Compound 51] was run?
Its IC50 is < 5 µM.

With `CC(c1nc2ccccc2c(=O)n1-c1ccc(F)cc1)N(C)C(=O)Nc1ccc([N+](=O)[O-])cc1Cl` (stereo not drawn) [Compound 64] as the compound, how does the IC50 read?
Its IC50 is < 10 µM.

For `O=C(Cc1cccc(C(F)(F)F)c1)NCCc1nc2ccccc2c(=O)n1-c1ccc(F)cc1` [Compound 50], which IC50 is on record?
Its IC50 is < 1 µM.

For `CC(NC(=O)Nc1cccc(C(F)(F)F)c1)c1nc2ccccc2c(=O)n1-c1ccc(F)cc1` (stereo not drawn) [Compound 73], which IC50 is on record?
Its IC50 is < 5 µM.

Which IC50 does the source give for `CCCN(CCC(=O)NC1CCCc2ccccc21)C(=O)c1cc(OC)cc(OC)c1` (stereo not drawn) [Compound 47] here?
The IC50 was < 5 µM.

`CCCN(C(=O)Nc1cccc(C(F)(F)F)c1)C(C)c1nc2ccccc2c(=O)n1-c1ccc(F)cc1` (stereo not drawn) [Compound 36] was tested. Which IC50 did it give?
Its IC50 is < 5 µM.

Which IC50 does the source give for `O=C(NCCCc1nc2ccccc2c(=O)n1-c1ccc(F)cc1)Nc1cccc(C(F)(F)F)c1` [Compound 74] here?
The IC50 was < 5 µM.

For `CC(c1nc2ccccc2c(=O)n1-c1ccc(F)cc1)N(C)C(=O)Nc1cccc(C(F)(F)F)c1` (stereo not drawn) [Compound 11], which IC50 is on record?
The IC50 was < 5 µM.

Which IC50 does the source give for `CCC(c1nc2ccccc2c(=O)n1-c1ccc(C)cc1)N(CCc1ccccc1)C(=O)CCCCF` (stereo not drawn) [Compound 39] here?
The IC50 was < 5 µM.

For `CC(c1nc2ccccc2c(=O)n1-c1ccc(F)cc1)N(C)C(=O)Nc1ccc(C(F)(F)F)cc1` (stereo not drawn) [Compound 54], which IC50 is on record?
Its IC50 is < 5 µM.

For `CC(c1nc2ccccc2c(=O)n1-c1ccc(F)cc1)N(C)C(=O)Nc1cccc(F)c1` (stereo not drawn) [Compound 55], which IC50 is on record?
Its IC50 is < 5 µM.

`CC(c1nc2ccccc2c(=O)n1-c1ccc(F)cc1)N(C)C(=O)Nc1ccc(SC(F)(F)F)cc1` (stereo not drawn) [Compound 60] was tested. Which IC50 did it give?
Its IC50 is < 5 µM.

How did the IC50 turn out when `CCOOC(=O)c1cccc(NC(=O)N(C)C(C)c2nc3ccccc3c(=O)n2-c2ccc(F)cc2)c1` (stereo not drawn) [Compound 65] was run?
Its IC50 is < 10 µM.

How did the IC50 turn out when `CCC(C)N(CCC(=O)NC1CCCc2ccccc21)C(=O)COc1ccc(Cl)cc1` (stereo not drawn) [Compound 49] was run?
Its IC50 is < 1 µM.

`CCCN(C(=O)Nc1cccc(OC)c1)C(C)c1nc2ccccc2c(=O)n1-c1ccc(F)cc1` (stereo not drawn) [Compound 38] was tested. Which IC50 did it give?
Its IC50 is < 5 µM.

For `CC(c1nc2ccccc2c(=O)n1-c1ccc(F)cc1)N(C)C(=O)Nc1cc(Cl)nc(Cl)c1` (stereo not drawn) [Compound 58], which IC50 is on record?
Its IC50 is < 5 µM.

With `CCC(C)N(CCC(=O)NC1CCCc2ccccc21)C(=O)c1cccc2ccccc12` (stereo not drawn) [Compound 48] as the compound, how does the IC50 read?
The IC50 was < 0.5 µM.

Which IC50 does the source give for `CC(c1nc2ccccc2c(=O)n1-c1ccc(F)cc1)N(C)C(=O)Nc1ccc([N+](=O)[O-])c(Cl)c1` (stereo not drawn) [Compound 62] here?
The IC50 was < 1 µM.

How did the IC50 turn out when `CC(C)c1cccc(NC(=O)N(C)C(C)c2nc3ccccc3c(=O)n2-c2ccc(F)cc2)c1` (stereo not drawn) [Compound 57] was run?
Its IC50 is < 10 µM.

Which IC50 does the source give for `CC(c1nc2ccccc2c(=O)n1-c1ccc(F)cc1)N(C)C(=O)Nc1ccc(Cl)c(Cl)c1` (stereo not drawn) [Compound 53] here?
The IC50 was < 1 µM.

How did the IC50 turn out when `CCC(=O)N1CCN(C(CC)c2nc3ccccc3c(=O)n2-c2ccc(C)cc2)C(C)C1` (stereo not drawn) [Compound 42] was run?
Its IC50 is < 5 µM.

`CCCCCCCCC(=O)N(CCCCC)C(C)c1nc2ccccc2c(=O)n1-c1ccccc1` (stereo not drawn) [Compound 41] was tested. Which IC50 did it give?
Its IC50 is < 10 µM.

How did the IC50 turn out when `O=C(NCc1nc2ccccc2c(=O)n1-c1ccc(F)cc1)Nc1cc(Cl)nc(Cl)c1` [Compound 6] was run?
Its IC50 is < 0.5 µM.

How did the IC50 turn out when `CC(c1nc2ccccc2c(=O)n1-c1ccc(F)cc1)N(C)C(=O)Nc1ccc(Cl)c(C(F)(F)F)c1` (stereo not drawn) [Compound 61] was run?
The IC50 was < 1 µM.

How did the IC50 turn out when `CC(c1nc2ccccc2c(=O)n1-c1ccc(F)cc1)N(C)C(=O)Nc1cccc(SC(F)(F)F)c1` (stereo not drawn) [Compound 52] was run?
The IC50 was < 1 µM.

With `CCC(c1nc2ccccc2c(=O)[nH]1)N1CCN(C(=O)Nc2ccc(Cl)c(Cl)c2)C(C)C1` (stereo not drawn) [Compound 45] as the compound, how does the IC50 read?
The IC50 was < 5 µM.

Source: patent publication US7708998B2, “Methods of inhibiting unwanted cell proliferation using hedgehog antagonists” (Curis, Inc., priority 2000, dated 2010)
